Source: US6737383B1, “Herbicidal oxadiazolidines” (priority 1999, dated 2004)

How the values were obtained:
crabgrass = test: Test B pre/postemergence crabgrass; type: in vivo, Digitaria sanguinalis; settings: for Crabgrass plant response rating (0 to 10 scale): 0 is no effect
In short: (§1)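 Herbicidal effect was estimated by eye on a ten-point control scale after plants spent twelve to sixteen days in a greenhouse following soil or foliar treatment. Foliar sprays targeted plants at one to four leaves; all doses were formulated in a non-phytotoxic solvent with surfactant.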

cocklebur = test: Test B pre/postemergence cocklebur; type: in vivo, Xanthium strumarium; settings: for Cocklebur plant response rating (0 to 10 scale): 0 is no effect
In short: as §1

wild oat = test: Test B pre/postemergence wild oat; type: in vivo, Avena fatua
In short: as §1

wheat = test: Test B pre/postemergence wheat; type: in vivo, Triticum aestivum
In short: as §1

[1] = Postemergence, Rate 125 g/ha, scale of 0 to 10 where 0 is no effect and 10 is complete control
[2] = Preemergence, Rate 62 g/ha, scale of 0 to 10 where 0 is no effect and 10 is complete control
[3] = Preemergence, Rate 125 g/ha, 10 is complete control
[4] = Preemergence, Rate 250 g/ha, scale 0 to 10, 0 is no effect, 10 is complete control
[5] = Preemergence, Rate 500 g/ha, scale 0 to 10 (0 no effect, 10 complete control)
[6] = Rate 62 g/ha, Postemergence, scale of 0 to 10 where 0 is no effect and 10 is complete control
[7] = Rate 250 g/ha, Postemergence, scale 0 to 10, 0 is no effect, 10 is complete control
[8] = Rate 500 g/ha, Postemergence, scale 0 to 10
[9] = Preemergence, Rate 125 g/ha, 0 is no effect, 10 is complete control
[10] = Rate 125 g/ha, Postemergence, scale 0 to 10
[11] = Preemergence, Rate 500 g/ha, scale of 0 to 10 where 0 is no effect and 10 is complete control

CC(C)N(C(=O)n1oc(=O)n(-c2nc(Cl)sc2Cl)c1=O)c1ccc(F)cc1 [Compound 160]
0: Crabgrass plant response rating (crabgrass; [1]) | Crabgrass plant response rating (crabgrass; [2]) | Crabgrass plant response rating (0 to 10 scale) (crabgrass; [3]) | Crabgrass plant response rating (crabgrass; [4]) | Crabgrass plant response rating (crabgrass; [5]) | Crabgrass plant response rating (crabgrass; [6]) | Plant response rating, Crabgrass (crabgrass; [7]) | Crabgrass plant response rating (crabgrass; [8]) | Cocklebur plant response rating (cocklebur; [1]) | Cocklebur plant response rating (cocklebur; [2]) | Cocklebur plant response rating (0 to 10 scale) (cocklebur; [3]) | Cocklebur plant response rating (cocklebur; [4]) | Cocklebur plant response rating (cocklebur; [5]) | Cocklebur plant response rating (cocklebur; [6]) | Plant response rating, Cocklebur (cocklebur; [7]) | Cocklebur plant response rating (cocklebur; [8]) | Wild oats plant response rating (wild oat; [2]) | Wild oats plant response rating (0 to 10 scale) (wild oat; [9]) | Wild oats plant response rating (wild oat; [4]) | Wild oats plant response rating (wild oat; [5]) | Plant response rating, Wild oats (wild oat; [7]) | Wild oats plant response rating (wild oat; [8]) | Wheat plant response rating (wheat; [2]) | Wheat plant response rating (0 to 10 scale) (wheat; [9]) | Wheat plant response rating (wheat; [4]) | Wheat plant response rating (wheat; [5]) | Plant response rating, Wheat (wheat; [7]) | Wheat plant response rating (wheat; [8])

Cc1ccccc1-n1c(=O)on(C(=O)N(c2ccc(-c3ccccc3)cc2)C(C)C)c1=O [Compound 187]
0: Crabgrass plant response rating (crabgrass; [2]) | Crabgrass plant response rating (0 to 10 scale) (crabgrass; [3]) | Crabgrass plant response rating (crabgrass; [4]) | Crabgrass plant response rating (crabgrass; [5]) | Crabgrass plant response rating (crabgrass; [6]) | Crabgrass plant response rating (crabgrass; [10]) | Plant response rating (0 to 10; 0 is no effect, 10 is complete control), Crabgrass (crabgrass; Rate 250 g/ha, Postemergence) | Crabgrass plant response rating (crabgrass; [8]) | Cocklebur plant response rating (cocklebur; [2]) | Cocklebur plant response rating (0 to 10 scale) (cocklebur; [3]) | Cocklebur plant response rating (cocklebur; [4]) | Cocklebur plant response rating (cocklebur; [5]) | Cocklebur plant response rating (cocklebur; [6]) | Cocklebur plant response rating (cocklebur; [10]) | Plant response rating (0 to 10; 0 is no effect, 10 is complete control), Cocklebur (cocklebur; Rate 250 g/ha, Postemergence) | Cocklebur plant response rating (cocklebur; [8]) | Wild oats plant response rating (wild oat; [2]) | Wild oats plant response rating (wild oat; [4]) | Wild oats plant response rating (wild oat; [5]) | Wild oats plant response rating (wild oat; [6]) | Wild oats plant response rating (wild oat; [10]) | Plant response rating (0 to 10; 0 is no effect, 10 is complete control), Wild oats (wild oat; Rate 250 g/ha, Postemergence) | Wheat plant response rating (wheat; [2]) | Wheat plant response rating (wheat; [4]) | Wheat plant response rating (wheat; [5]) | Wheat plant response rating (wheat; [6]) | Wheat plant response rating (wheat; [10]) | Plant response rating (0 to 10; 0 is no effect, 10 is complete control), Wheat (wheat; Rate 250 g/ha, Postemergence)

Cc1ccccc1-n1c(=O)on(C(=O)N(c2ccc(S(C)(=O)=O)cc2)C(C)C)c1=O [Compound 203]
0: Crabgrass plant response rating (crabgrass; [2]) | Crabgrass plant response rating (0 to 10 scale) (crabgrass; [3]) | Crabgrass plant response rating (crabgrass; [4]) | Plant response rating, Crabgrass (crabgrass; [11]) | Crabgrass plant response rating (crabgrass; [6]) | Crabgrass plant response rating (crabgrass; [10]) | Plant response rating (0 to 10; 0 is no effect, 10 is complete control), Crabgrass (crabgrass; Rate 250 g/ha, Postemergence) | Crabgrass plant response rating (crabgrass; [8]) | Cocklebur plant response rating (cocklebur; [2]) | Cocklebur plant response rating (0 to 10 scale) (cocklebur; [3]) | Cocklebur plant response rating (cocklebur; [4]) | Plant response rating, Cocklebur (cocklebur; [11]) | Cocklebur plant response rating (cocklebur; [6]) | Cocklebur plant response rating (cocklebur; [10]) | Plant response rating (0 to 10; 0 is no effect, 10 is complete control), Cocklebur (cocklebur; Rate 250 g/ha, Postemergence) | Cocklebur plant response rating (cocklebur; [8]) | Wild oats plant response rating (wild oat; [2]) | Wild oats plant response rating (wild oat; [4]) | Plant response rating, Wild oats (wild oat; [11]) | Wild oats plant response rating (wild oat; [6]) | Wild oats plant response rating (wild oat; [10]) | Plant response rating (0 to 10; 0 is no effect, 10 is complete control), Wild oats (wild oat; Rate 250 g/ha, Postemergence) | Wheat plant response rating (wheat; [2]) | Wheat plant response rating (wheat; [4]) | Plant response rating, Wheat (wheat; [11]) | Wheat plant response rating (wheat; [6]) | Wheat plant response rating (wheat; [10]) | Plant response rating (0 to 10; 0 is no effect, 10 is complete control), Wheat (wheat; Rate 250 g/ha, Postemergence)
